According to PubChem BioAssay (NCI):
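Following 48 hours of exposure in 96-well plates, responses at five concentrations were used to interpolate endpoints linearly. TGI: concentration producing complete growth inhibition.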

Columns and labels:
Assay in all cases: NCI-60 cell line screen, 48 h
[1] = tested on: 786-0 renal
[2] = tested on: A498 renal
[3] = tested on: A549 NSCLC
[4] = tested on: ACHN renal
[5] = tested on: BT-549 breast
[6] = tested on: CAKI-1 renal
[7] = tested on: CCRF-CEM leukemia
[8] = tested on: COLO 205 colon
[9] = tested on: DU-145 prostate
[10] = tested on: EKVX NSCLC
[11] = tested on: HCC-2998 colon
[12] = tested on: HCT-116 colon
[13] = tested on: HCT-15 colon
[14] = tested on: HL-60(TB) leukemia
[15] = tested on: HOP-62 NSCLC
[16] = tested on: HOP-92 NSCLC
[17] = tested on: HS 578T breast
[18] = tested on: HT29 colon
[19] = tested on: IGROV1 ovarian
[20] = tested on: K-562 leukemia
[21] = tested on: KM12 colon
[22] = tested on: LOX IMVI melanoma
[23] = tested on: M14 melanoma
[24] = tested on: MALME-3M melanoma
[25] = tested on: MCF7 breast
[26] = tested on: MDA-MB-231 breast
[27] = tested on: MDA-MB-435
[28] = tested on: MDA-N
[29] = tested on: MOLT-4 leukemia
[30] = tested on: NCI-H226 lung
[31] = tested on: NCI-H23 lung
[32] = tested on: NCI-H460 lung
[33] = tested on: NCI-H522 lung
[34] = tested on: NCI/ADR-RES ovarian
[35] = tested on: OVCAR-3 ovarian
[36] = tested on: OVCAR-4 ovarian
[37] = tested on: OVCAR-5 ovarian
[38] = tested on: OVCAR-8 ovarian
[39] = tested on: PC-3 prostate
[40] = tested on: RPMI-8226 leukemia
[41] = tested on: RXF 393 renal
[42] = tested on: SF-268 CNS
[43] = tested on: SF-295 CNS
[44] = tested on: SF-539 CNS
[45] = tested on: SK-MEL-2 melanoma
[46] = tested on: SK-MEL-28 melanoma
[47] = tested on: SK-MEL-5 melanoma
[48] = tested on: SK-OV-3 ovarian
[49] = tested on: SN12C renal
[50] = tested on: SNB-19 CNS
[51] = tested on: SNB-75 CNS
[52] = tested on: SR leukemia
[53] = tested on: SW-620 colon
[54] = tested on: T-47D breast
[55] = tested on: TK-10 renal
[56] = tested on: U251 CNS
[57] = tested on: UACC-257 melanoma
[58] = tested on: UACC-62 melanoma
[59] = tested on: UO-31 renal

COC(=O)c1ccc(C)cc1CC1Cc2c(C)cccc2C1=O (configuration not stated)
TGI [1]: 34.8 µM | TGI [2]: 24 µM | TGI [3]: > 60.5 µM | TGI [4]: > 94.3 µM | TGI [5]: 21.1 µM | TGI [6]: 30.8 µM | TGI [7]: 62.2 µM | TGI [8]: 17 µM | TGI [9]: > 81.9 µM | TGI [10]: 73.5 µM | TGI [11]: 25.2 µM | TGI [12]: 15.4 µM | TGI [13]: 12.7 µM | TGI [14]: 24.2 µM | TGI [15]: > 53.4 µM | TGI [16]: 46.8 µM | TGI [17]: 34 µM | TGI [18]: 11.1 µM | TGI [19]: 80.1 µM | TGI [20]: > 34.4 µM | TGI [21]: 16.1 µM | TGI [22]: 32.2 µM | TGI [23]: > 54.1 µM | TGI [24]: 45.1 µM | TGI [25]: 7.93 µM | TGI [26]: 8.42 µM | TGI [27]: 4.38 µM | TGI [28]: 4.82 µM | TGI [29]: > 47.2 µM | TGI [30]: 37.4 µM | TGI [31]: > 46.6 µM | TGI [32]: > 78.3 µM | TGI [33]: 22.8 µM | TGI [34]: 17.2 µM | TGI [35]: 16.1 µM | TGI [36]: > 91.9 µM | TGI [37]: > 100 µM | TGI [38]: > 68.8 µM | TGI [39]: > 34.6 µM | TGI [40]: 30.3 µM | TGI [41]: 34.3 µM | TGI [42]: 44.7 µM | TGI [43]: > 52.8 µM | TGI [44]: 22.3 µM | TGI [45]: 17.5 µM | TGI [46]: 84.7 µM | TGI [47]: 19.7 µM | TGI [48]: 43.2 µM | TGI [49]: 28.2 µM | TGI [50]: 89.7 µM | TGI [51]: 20.9 µM | TGI [52]: > 100 µM | TGI [53]: > 48.7 µM | TGI [54]: > 100 µM | TGI [55]: > 54.6 µM | TGI [56]: 20.8 µM | TGI [57]: 49 µM | TGI [58]: 22 µM | TGI [59]: 66.4 µM

COc1ccc(/C=C(/c2ccccc2)c2c(C)cc(C)c(/C(=C\c3ccc(OC)cc3)c3ccccc3)c2N=Nc2cc(C)cc(C)c2)cc1
TGI [1]: > 100 µM | TGI [2]: > 100 µM | TGI [3]: > 100 µM | TGI [4]: > 100 µM | TGI [5]: > 100 µM | TGI [6]: > 100 µM | TGI [7]: > 100 µM | TGI [8]: 24.3 µM | TGI [9]: > 100 µM | TGI [10]: > 100 µM | TGI [11]: > 25.8 µM | TGI [12]: > 87.8 µM | TGI [13]: > 100 µM | TGI [14]: > 42.4 µM | TGI [15]: > 100 µM | TGI [16]: > 100 µM | TGI [17]: > 100 µM | TGI [18]: > 100 µM | TGI [19]: > 100 µM | TGI [20]: > 100 µM | TGI [21]: > 71.9 µM | TGI [22]: > 100 µM | TGI [23]: > 100 µM | TGI [24]: 56.6 µM | TGI [25]: > 100 µM | TGI [26]: 16 µM | TGI [27]: > 62.2 µM | TGI [28]: > 100 µM | TGI [29]: > 100 µM | TGI [30]: > 100 µM | TGI [31]: > 83.8 µM | TGI [32]: > 75.2 µM | TGI [33]: > 64.1 µM | TGI [34]: > 100 µM | TGI [35]: 30.2 µM | TGI [36]: > 100 µM | TGI [37]: > 100 µM | TGI [38]: > 100 µM | TGI [39]: > 100 µM | TGI [40]: > 100 µM | TGI [41]: > 95.9 µM | TGI [42]: > 100 µM | TGI [43]: > 100 µM | TGI [44]: > 100 µM | TGI [45]: 21.8 µM | TGI [46]: > 100 µM | TGI [47]: 37.6 µM | TGI [48]: > 100 µM | TGI [49]: 23.4 µM | TGI [50]: > 100 µM | TGI [51]: 34.2 µM | TGI [52]: > 100 µM | TGI [53]: > 100 µM | TGI [54]: > 100 µM | TGI [55]: > 74.4 µM | TGI [56]: > 100 µM | TGI [57]: 18.8 µM | TGI [58]: > 100 µM | TGI [59]: > 100 µM

COc1cc(Nc2nc3ccccc3nc2C(C)C)cc(OC)c1OC
TGI [1]: > 100 µM | TGI [2]: > 100 µM | TGI [3]: > 100 µM | TGI [4]: > 100 µM | TGI [5]: > 100 µM | TGI [6]: > 100 µM | TGI [7]: > 100 µM | TGI [8]: > 100 µM | TGI [9]: > 100 µM | TGI [10]: > 100 µM | TGI [11]: > 100 µM | TGI [12]: > 100 µM | TGI [13]: > 100 µM | TGI [14]: > 100 µM | TGI [15]: > 100 µM | TGI [16]: > 100 µM | TGI [17]: > 100 µM | TGI [18]: > 100 µM | TGI [19]: > 100 µM | TGI [20]: > 100 µM | TGI [21]: > 100 µM | TGI [22]: > 100 µM | TGI [23]: > 100 µM | TGI [24]: > 100 µM | TGI [25]: > 100 µM | TGI [26]: > 100 µM | TGI [27]: > 100 µM | TGI [28]: > 100 µM | TGI [29]: > 100 µM | TGI [30]: > 100 µM | TGI [31]: > 100 µM | TGI [32]: > 100 µM | TGI [33]: > 100 µM | TGI [34]: > 100 µM | TGI [35]: > 100 µM | TGI [36]: > 100 µM | TGI [37]: > 100 µM | TGI [38]: > 100 µM | TGI [39]: > 100 µM | TGI [40]: > 100 µM | TGI [41]: > 100 µM | TGI [42]: > 100 µM | TGI [43]: > 100 µM | TGI [44]: > 100 µM | TGI [45]: > 100 µM | TGI [46]: > 100 µM | TGI [47]: > 100 µM | TGI [48]: > 100 µM | TGI [49]: > 100 µM | TGI [50]: > 100 µM | TGI [51]: > 100 µM | TGI [52]: > 100 µM | TGI [53]: > 100 µM | TGI [54]: > 100 µM | TGI [55]: > 100 µM | TGI [56]: > 100 µM | TGI [57]: > 100 µM | TGI [58]: > 100 µM | TGI [59]: > 100 µM
